Data reported in US10435364B2, “Compounds for use as bromodomain inhibitors” (Albert Ludwigs Universität Freiburg, priority 2013, dated 2019).
Read-outs that look alike come from different tables or passages of the source.

Columns and labels:
[1] = system: OVCAR-5; test: NCI-60 DTP Human Tumour Cell Line Screen; type: cell-based; details: NCI-60 screen, 10 μM, ovarian cancer
[2] = system: COLO 205; test: NCI-60 DTP Human Tumour Cell Line Screen; type: cell-based; details: NCI-60 screen, 10 μM, colon cancer
[3] = target: T1, EP300 (Homo sapiens, UniProt Q09472); test: BROMOscan; type: binding; details: BROMOscan; read-out: binding affinity to EP300
T1 construct: T7 phage strains displaying bromodomains; host or cells: T7 phage display in E. coli host derived from BL21
T1 sequence (Q09472 1049-1156 limits assumed): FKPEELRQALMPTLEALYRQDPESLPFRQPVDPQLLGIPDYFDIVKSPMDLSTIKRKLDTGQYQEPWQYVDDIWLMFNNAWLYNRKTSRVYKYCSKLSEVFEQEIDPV
Procedure: (§1) Bromodomain profiling was carried out on the basis of BROMOscan™. This platform accounted for the indirect determination of the dissociation constants between 19 bromodomains and the compound of formula (4), by binding competition against a reference immobilized ligand.
(§2) The target selectivity of the compound of formula (4) within the human BRD family was assessed by means of BROMOscan™. The binding of the compound to at least one representative protein of each BRD family was assessed.
(§3) Bromodomain profiling was carried out on the basis of BROMOscan™, which is a leading platform for identifying small molecule bromodomain inhibitors. BROMOscan™ employs a proprietary ligand binding site-directed competition assay to quantitatively measure interactions between test compounds and bromodomains. The reliable assay panel is suitable for high-throughput screening and delivers quantitative ligand binding data.
(§4) Compounds that bind the bromodomain prevent its binding to the immobilized ligand thus reducing the amount of protein captured. […] Hits are identified by measuring the amount of bromodomain captured in test versus control samples.
(§5) Bromodomain assays: T7 phage strains displaying bromodomains were grown in parallel in 24-well blocks in an E. coli host derived from the BL21 strain. E. coli were grown to log-phase and infected with T7 phage from a frozen stock (multiplicity of infection=0.4) and incubated with shaking at 32° C. until lysis (90-150 minutes). The lysates were centrifuged (5,000×g) and filtered (0.2 μm) to remove cell debris. […] The bound beads were blocked with excess biotin and washed with blocking buffer (SeaBlock (Pierce), 1% BSA, 0.05% Tween 20, 1 mM DTT) to remove unbound ligand and to reduce non-specific phage binding. […] Test compounds were prepared as 1000× stocks in 100% DMSO and subsequently diluted 1:25 in mono ethylene glycol (MEG). The compounds were then diluted directly into the assays such that the final concentrations of DMSO and MEG were 0.1% and 2.4%, respectively. All reactions were performed in polypropylene 384-well plates in a final volume of 0.02 ml. […] The bromodomain concentration in the eluates was measured by qPCR.
(§6) The % Ctrl values were determined as follows: % Ctrl=[(test compound signal-positive control signal)/(negative control signal-positive control signal)]×100
(§7) For 7 bromodomains other than the bromodomains from the BET family dissociation constants Kd were determined and the results are given in Table 3.

[4] = target: T2, CREBBP (Homo sapiens, UniProt Q92793); test: BROMOscan; type: binding; details: BROMOscan; read-out: binding affinity to CREBBP
T2 construct: T7 phage strains displaying bromodomains; host or cells: T7 phage display in E. coli host derived from BL21
Procedure: as §1, §2, §3, §4, §5, §6, §7

[5] = target: T3, BRD4(1) (Homo sapiens, UniProt O60885); test: BROMOscan; type: binding; details: BROMOscan, n=2; read-out: dissociation constant (Kd) in complex with BRD4-BD1
T3 construct: T7 phage strains displaying bromodomains; host or cells: T7 phage display in E. coli host derived from BL21

[6] = system: SR; test: NCI-60 DTP Human Tumour Cell Line Screen; type: cell-based; details: NCI-60 screen, 10 μM, leukaemia panel
[7] = target: T4, BRD3(1) (Homo sapiens, UniProt Q15059); test: BROMOscan; type: binding; details: BROMOscan
T4 construct: T7 phage strains displaying bromodomains; host or cells: T7 phage display in E. coli host derived from BL21

[8] = target: T5, BRD2(1) (Homo sapiens, UniProt P25440); test: BROMOscan; type: binding; details: BROMOscan
T5 construct: T7 phage strains displaying bromodomains; host or cells: T7 phage display in E. coli host derived from BL21

[9] = system: HL-60(TB); test: NCI-60 DTP Human Tumour Cell Line Screen; type: cell-based; details: NCI-60 screen, 10 μM, leukaemia panel
[10] = system: T6, BET bromodomain family; test: BROMOscan selectivity profile; type: binding, human
T6 construct: other: BROMOscan
Procedure: as §1, §2
Sphere size and colour indicate the binding affinity of the compound of formula (4) to the specific BRDs, as observed in the BROMOscan™ assay. Additionally, binding to PB1-BD4 was assessed by local ITC measurements. The dissociation constant (Kd) corresponding to each BRD in complex with the compound of formula (4) is indicated. […]

[11] = system: HeLa; test: Antiproliferative activity, HeLa cells; type: cell-based; details: at a high concentration of 50 μM
Procedure: BRD4 is a validated therapeutic target in NUT midline carcinoma and in acute myeloid and MLL-fusion leukaemia. The proliferation inhibition potential of the virtual screening hits in HL-60 and HeLa cell lines for the compound of formula (4) was assessed.

[12] = target: T7, BRD3(2) (Homo sapiens, UniProt Q15059); test: BROMOscan; type: binding; details: BROMOscan
T7 construct: T7 phage strains displaying bromodomains; host or cells: T7 phage display in E. coli host derived from BL21

[13] = system: mice (male and female); test: Toxicity screening, single dose; type: in vivo
Excerpt: […]. All studied organs and tissues had the structure characteristics and relative body weights for normal animals.

[14] = system: leukaemia cell lines; test: NCI-60 DTP Human Tumour Cell Line Screen, leukaemia panel; type: cell-based; details: NCI-60 screen, 10 μM
[15] = target: T8, BRD4-BD1 (Homo sapiens, UniProt O60885); test: Isothermal titration calorimetry (ITC), dissociation constant; type: binding
T8 construct: BRD4-BD1 was expressed and purified as described previously; made in house
Procedure: Data were obtained in discrete titration experiments with an injection volume of 12 μl per injection. Subsequently, the heats per injection were calculated as integrals and after normalization against the molar concentrations plotted against the molar ratio as implemented in Microcal Origin. Finally, data were fitted according to a single set of sites binding model with
[formula] as function to calculate the overall sum of heat of the titration and with
[formula] […] A correction term was included to compensate for displacement of volume of the sample cell in the course of subsequent injections according to the manufacturer's manual “ITC Data Analysis in Origin” (Microcal).
The dissociation constant has molar units which correspond to the concentration of ligand at which the binding site on a particular protein is half occupied, i.e. the concentration of the ligand at which the concentration of protein with ligand bound equals the concentration of protein with no ligand bound. The smaller the dissociation constant, the higher the affinity between ligand and protein.

T4 sequence (Q15059 34-140 limits assumed): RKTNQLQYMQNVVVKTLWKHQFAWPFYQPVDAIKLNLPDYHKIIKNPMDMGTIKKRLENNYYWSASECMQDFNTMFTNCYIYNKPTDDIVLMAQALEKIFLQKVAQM
T7 sequence (Q15059 306-415 limits assumed): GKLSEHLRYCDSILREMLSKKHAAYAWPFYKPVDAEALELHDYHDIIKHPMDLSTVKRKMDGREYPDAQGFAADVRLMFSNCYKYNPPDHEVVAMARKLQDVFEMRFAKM
T5 sequence (P25440 74-180 limits assumed): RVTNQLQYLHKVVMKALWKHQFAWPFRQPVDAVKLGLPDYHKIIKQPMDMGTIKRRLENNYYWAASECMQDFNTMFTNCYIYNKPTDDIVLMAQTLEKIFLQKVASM
T2 sequence (Q92793 1085-1192 limits assumed): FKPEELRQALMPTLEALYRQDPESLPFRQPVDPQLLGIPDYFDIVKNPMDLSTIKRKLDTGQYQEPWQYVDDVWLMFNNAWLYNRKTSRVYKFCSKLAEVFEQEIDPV

## CCc1c(C(=O)Nc2cc(S(=O)(=O)N(CC)CC)ccc2O)[nH]c(C)c1C(C)=O [compound of formula (4)]
[1]
  sensitivity in the cell line screen (growth inhibition): most resistant
[2]
  sensitivity in the cell line screen (growth inhibition): most resistant
[3]
  Kd: ~3500 nM
[4]
  Kd: ~3500 nM
[5]
  Kd: 160 nM
[6]
  sensitivity in the cell line screen (growth inhibition): most sensitive
[7]
  affinity to BRD3 (both BRDs), BD1: nM range
[8]
  affinity to BRD2-BD1: nM range
[9]
  sensitivity in the cell line screen (growth inhibition): most sensitive
[10]
  binding specificity within the human BRD family: bind specifically to the BET bromodomain family
[11]
  antiproliferative activity against HeLa: no antiproliferative activity
[12]
  affinity to BRD3 (both BRDs), BD2: nM range
[13]; mice (male and female), single dose
  LD50: higher than 2000 mg/kg of body weight
[13]; mouse, in vivo, 2000 mg/kg
  signs of toxicity: did not induce any signs of toxicity
[14]
  activity against the leukaemia cell lines: potent and selective activity
[15]; ITC, 25° C., read-out: dissociation constant Kd for BRD4-BD1
  Kd: 300 nM
[15]; Table 1, target not given, values of formula (4) and (3) match ITC Kd for BRD4-BD1, read-out: pKd (converted)
  Kd: 316 nM
